The source made the active and inactive calls. The rule behind the calls is not given here.
Legend:
[1] = molecular target: T1, Peroxisome proliferator-activated receptor alpha (Homo sapiens) (UniProt Q07869); assay: Agonist activity at human PPARalpha ligand binding domain expressed in african green monkey CV1 cells co-transfected with fused Gal4-DBD by transactivation assay relative to gemfibrozil; format: cell-based; conditions: CV-1
T1 sequence (whole entry): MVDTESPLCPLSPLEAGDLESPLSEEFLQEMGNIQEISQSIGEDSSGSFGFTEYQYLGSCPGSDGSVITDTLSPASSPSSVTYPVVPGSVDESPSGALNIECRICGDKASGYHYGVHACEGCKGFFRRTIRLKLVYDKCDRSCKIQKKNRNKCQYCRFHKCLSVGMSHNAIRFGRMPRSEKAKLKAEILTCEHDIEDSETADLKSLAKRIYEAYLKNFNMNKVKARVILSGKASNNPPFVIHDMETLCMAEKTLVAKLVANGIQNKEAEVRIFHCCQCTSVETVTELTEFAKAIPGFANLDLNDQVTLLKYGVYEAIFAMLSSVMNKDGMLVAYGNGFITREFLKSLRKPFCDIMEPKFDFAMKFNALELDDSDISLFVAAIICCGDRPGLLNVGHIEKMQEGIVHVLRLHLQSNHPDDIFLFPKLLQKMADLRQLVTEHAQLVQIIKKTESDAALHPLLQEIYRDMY

[2] = molecular target: T2, Peroxisome proliferator-activated receptor alpha (Homo sapiens, UniProt Q07869); assay: (§1) Agonist activity at human PPARalpha ligand binding domain expressed in african green monkey CV1 cells co-transfected with fused Gal4-DBD by transactivation assay; format: cell-based, CV-1
T2 sequence (Q07869 whole entry): T1 sequence (whole entry)

CV-1 = assay: Ratio of EC50 for human PPARalpha ligand binding domain expressed in african green monkey CV1 cells to EC50 for human PPARgamma ligand binding domain expressed in african green monkey CV1 cells; format: cell-based
[3] = molecular target: T3, Peroxisome proliferator-activated receptor gamma (Homo sapiens, UniProt P37231)
T3 sequence (P37231 whole entry): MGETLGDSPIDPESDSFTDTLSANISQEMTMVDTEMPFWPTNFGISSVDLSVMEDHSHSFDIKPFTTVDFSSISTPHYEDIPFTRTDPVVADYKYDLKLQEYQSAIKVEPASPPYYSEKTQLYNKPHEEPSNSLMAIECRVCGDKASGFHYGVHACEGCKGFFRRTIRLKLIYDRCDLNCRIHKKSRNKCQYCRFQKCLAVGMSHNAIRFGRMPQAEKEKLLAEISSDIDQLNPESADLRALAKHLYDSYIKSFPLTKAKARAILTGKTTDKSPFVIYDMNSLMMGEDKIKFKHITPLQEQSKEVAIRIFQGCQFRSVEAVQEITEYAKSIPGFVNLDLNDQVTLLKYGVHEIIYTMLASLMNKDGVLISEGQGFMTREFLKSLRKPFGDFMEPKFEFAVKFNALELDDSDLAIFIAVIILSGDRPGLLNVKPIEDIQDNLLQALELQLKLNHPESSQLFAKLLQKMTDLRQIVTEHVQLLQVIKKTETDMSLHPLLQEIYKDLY
Description: Agonist activity at human PPARgamma ligand binding domain expressed in african green monkey CV1 cells co-transfected with fused Gal4-DBD by transactivation assay

Mus musculus [4] = assay: Antihyperglycemic effect in db/db mouse assessed as inhibition of blood glucose at 3 mg/kg, po after 5 days; format: functional; conditions: 120 h
Mus musculus [5] = assay: Antihyperglycemic effect in db/db mouse assessed as inhibition of blood glucose at 0.3 mg/kg, po after 5 days; format: functional; conditions: 120 h
Mus musculus [6] = assay: Antihyperglycemic effect in db/db mouse assessed as inhibition of blood glucose at 3 mg/kg, po after 4 days; format: functional; conditions: 96 h
Mus musculus [7] = assay: Antihyperglycemic effect in db/db mouse assessed as inhibition of blood glucose at 3 mg/kg, po after 7 days; format: functional; conditions: 168 h
Mus musculus [8] = assay: Antihyperglycemic effect in db/db mouse assessed as inhibition of blood glucose at 3 mg/kg, po after 11 days; format: functional; conditions: 264 h
Mus musculus [9] = assay: Antihyperglycemic effect in db/db mouse assessed as inhibition of blood glucose at 0.3 mg/kg, po after 4 days; format: functional; conditions: 96 h
Mus musculus [10] = assay: Antihyperglycemic effect in db/db mouse assessed as inhibition of blood glucose at 0.3 mg/kg, po after 7 days; format: functional; conditions: 168 h
Mus musculus [11] = assay: Antihyperglycemic effect in db/db mouse assessed as inhibition of blood glucose at 0.3 mg/kg, po after 11 days; format: functional; conditions: 264 h
Mus musculus [12] = assay: Toxicity in db/db mouse assessed as weight gain at 3 mg/kg, po after 4 days; format: organism-based; design: dose 3 mg/kg, route oral; conditions: in vivo, 96 h
Mus musculus [13] = assay: Toxicity in db/db mouse assessed as weight gain at 3 mg/kg, po after 7 days; format: organism-based; design: dose 3 mg/kg, route oral; conditions: in vivo, 168 h
Mus musculus [14] = assay: Toxicity in db/db mouse assessed as weight gain at 3 mg/kg, po after 11 days; format: organism-based; design: dose 3 mg/kg, route oral; conditions: in vivo, 264 h
Mus musculus [15] = assay: Toxicity in db/db mouse assessed as weight gain at 0.3 mg/kg, po after 4 days; format: organism-based; design: dose 0.3 mg/kg, route oral; conditions: in vivo, 96 h
Mus musculus [16] = assay: Toxicity in db/db mouse assessed as weight gain at 0.3 mg/kg, po after 7 days; format: organism-based; design: dose 0.3 mg/kg, route oral; conditions: in vivo, 168 h
Mus musculus [17] = assay: Toxicity in db/db mouse assessed as weight gain at 0.3 mg/kg, po after 11 days; format: organism-based; design: dose 0.3 mg/kg, route oral; conditions: in vivo, 264 h
[18] = molecular target: T1, Peroxisome proliferator-activated receptor alpha (Homo sapiens); assay: as §1; format: cell-based; conditions: CV-1
Mus musculus [19] = assay: Antihyperglycemic effect in db/db mouse assessed as inhibition of blood glucose at 20 mg/kg, po after 5 days; format: functional; conditions: 120 h

| SMILES | Emax [1] | EC50 [2] | EC50 [3] | also measured |
| --- | --- | --- | --- | --- |
| Cc1ccc(C)c(OCCCC(C)(C)C(=O)O)c1 | 100% | – | – | – |
| CCO[C@@H](Cc1cccc(/C(C)=N/OCc2ccccc2Cl)c1)C(=O)O | 143% | 3.26 µM | 0.026 µM | Ratio EC50 (CV-1): 126 |
| CCO[C@@H](Cc1cccc(-c2cc(-c3ccccc3)on2)c1)C(=O)O | 162% | 5.6 µM | 3.29 µM | – |
| CCO[C@@H](Cc1cccc(/C(C)=N/OCc2ccc(F)cc2)c1)C(=O)O | 299% | 5.9 µM | 0.139 µM | inhibition in vivo at 3 mg/kg (Mus musculus [4]): 61%; inhibition in vivo at 0.3 mg/kg (Mus musculus [5]): 40.7%; inhibition in vivo at 3 mg/kg (Mus musculus [6]): 64%; inhibition in vivo at 3 mg/kg (Mus musculus [7]): 73%; inhibition in vivo at 3 mg/kg (Mus musculus [8]): 71%; inhibition in vivo at 0.3 mg/kg (Mus musculus [9]): 39%; inhibition in vivo at 0.3 mg/kg (Mus musculus [10]): 58%; inhibition in vivo at 0.3 mg/kg (Mus musculus [11]): 68%; Activity (Mus musculus [12]): 2.1 g; Activity (Mus musculus [13]): 3.6 g; Activity (Mus musculus [14]): 5.6 g; Activity (Mus musculus [15]): 1.9 g; Activity (Mus musculus [16]): 3.6 g; Activity (Mus musculus [17]): 5.6 g |
| CCO[C@H](Cc1cccc(C2=NOC(Cc3ccccc3)C2)c1)C(=O)O (stereo partly drawn) | 6% | – | 41.4 µM | Activity [18]: inactive |
| CCO[C@@H](Cc1cccc(/C(C)=N/OCc2ccc(O)cc2)c1)C(=O)O | 58% | 58.8 µM | 2.94 µM | – |
| CCO[C@@H](Cc1cccc(/C(C)=N/OCc2ccc(OS(C)(=O)=O)cc2)c1)C(=O)O | 165% | 13.1 µM | 1.61 µM | – |
| CCO[C@H](Cc1cccc(-c2cc(-c3ccccc3)on2)c1)C(=O)O | 48% | 30.4 µM | 37.4 µM | – |
| CCO[C@@H](Cc1cccc(C2=NOC(Cc3ccccc3)C2)c1)C(=O)O (stereo partly drawn) | 104% | 21.6 µM | 6.93 µM | Ratio EC50 (CV-1): 3.1 |
| CCO[C@@H](Cc1cccc(/C(C)=N/OCc2ccc(Br)cc2)c1)C(=O)O | 150% | 2.7 µM | 0.036 µM | – |
| CCO[C@@H](Cc1cccc(C2=NOC(c3ccc(OC)cc3)C2)c1)C(=O)O (stereo partly drawn) | 156% | 11.3 µM | 3.19 µM | – |
| CCO[C@@H](Cc1cccc(C2=NOC(c3ccccc3)C2)c1)C(=O)O (stereo partly drawn) | 78% | 3.99 µM | 0.22 µM | Ratio EC50 (CV-1): 18; inhibition in vivo at 20 mg/kg (Mus musculus [19]): 27% |
| CCO[C@@H](Cc1cccc(C2=NOC(c3ccc(I)cc3)C2)c1)C(=O)O (stereo partly drawn) | 162% | 2.76 µM | 0.606 µM | – |
| CCO[C@H](Cc1cccc(C2=NOC(c3ccccc3)C2)c1)C(=O)O (stereo partly drawn) | – | – | 25.4 µM | Activity [18]: inactive; inhibition in vivo at 20 mg/kg (Mus musculus [19]): 3% |
| CCO[C@@H](Cc1cccc(/C(C)=N/OCc2cccc(Cl)c2)c1)C(=O)O | 165% | 2.27 µM | 0.01 µM | Ratio EC50 (CV-1): 227 |
| CN(CCOc1ccc(CC2SC(=O)NC2=O)cc1)c1ccccn1 (stereo not drawn) | 56% | – | – | – |
| CCO[C@@H](Cc1cccc(/C(C)=N/OCc2ccccc2)c1)C(=O)O | 71% | 2.91 µM | 0.121 µM | – |

| SMILES | Emax [1] | EC50 [2] | EC50 [3] | also measured |
| --- | --- | --- | --- | --- |
| CCO[C@@H](Cc1cccc(C2=NOC(c3ccc(C(C)(C)C)cc3)C2)c1)C(=O)O (stereo partly drawn) | 138% | 3.95 µM | 2.73 µM | – |
| CCO[C@@H](Cc1cccc(/C(C)=N/OCc2ccc(Cl)cc2)c1)C(=O)O | 386% | 7.22 µM | 0.028 µM | Ratio EC50 (CV-1): 260; inhibition in vivo at 3 mg/kg (Mus musculus [4]): 60.1%; inhibition in vivo at 0.3 mg/kg (Mus musculus [5]): 19.3%; inhibition in vivo at 3 mg/kg (Mus musculus [6]): 61%; inhibition in vivo at 3 mg/kg (Mus musculus [7]): 73%; inhibition in vivo at 3 mg/kg (Mus musculus [8]): 76%; inhibition in vivo at 0.3 mg/kg (Mus musculus [9]): 63%; inhibition in vivo at 0.3 mg/kg (Mus musculus [10]): 60%; inhibition in vivo at 0.3 mg/kg (Mus musculus [11]): 71%; Activity (Mus musculus [12]): 2.5 g; Activity (Mus musculus [13]): 3.7 g; Activity (Mus musculus [14]): 5.3 g; Activity (Mus musculus [15]): 1.9 g; Activity (Mus musculus [16]): 3.7 g; Activity (Mus musculus [17]): 6 g |
| CCO[C@@H](Cc1ccc(OCCc2ccc(OS(C)(=O)=O)cc2)cc1)C(=O)O | 94% | – | – | – |
| CCO[C@@H](Cc1cccc(/C(C)=N/OCc2ccc(C(F)(F)F)cc2)c1)C(=O)O | 185% | 2.95 µM | 0.046 µM | – |
| CCO[C@@H](Cc1cccc(C2=NOC(c3ccc(OS(C)(=O)=O)cc3)C2)c1)C(=O)O (stereo partly drawn) | 107% | 37.4 µM | 28.1 µM | – |
| CCO[C@@H](Cc1cccc(C2=NOC(CCc3ccccc3)C2)c1)C(=O)O (stereo partly drawn) | 262% | 3.08 µM | 1.85 µM | Ratio EC50 (CV-1): 1.7 |
| CCO[C@@H](Cc1cccc(C2=NOC(c3ccc(Cl)cc3)C2)c1)C(=O)O (stereo partly drawn) | 125% | 6.78 µM | 0.816 µM | inhibition in vivo at 3 mg/kg (Mus musculus [4]): 41.7% |
| CCO[C@@H](Cc1cccc(/C(C)=N/OCc2ccc(I)cc2)c1)C(=O)O | 139% | 0.674 µM | 0.04 µM | – |
| CCO[C@H](Cc1cccc(C2=NOC(CCc3ccccc3)C2)c1)C(=O)O (stereo partly drawn) | 217% | 44.5 µM | 25.1 µM | Ratio EC50 (CV-1): 1.8 |
| COc1ccc(OC(=O)N(CC(=O)O)Cc2ccc(OCCc3nc(-c4ccccc4)oc3C)cc2)cc1 [MURAGLITAZAR] | – | – | – | inhibition in vivo at 3 mg/kg (Mus musculus [6]): 53%; inhibition in vivo at 3 mg/kg (Mus musculus [7]): 67%; inhibition in vivo at 3 mg/kg (Mus musculus [8]): 68%; Activity (Mus musculus [12]): 2 g; Activity (Mus musculus [13]): 3.6 g; Activity (Mus musculus [14]): 6.3 g |
| CCO[C@@H](Cc1cccc(/C(C)=N/OCc2ccc(C(C)(C)C)cc2)c1)C(=O)O | 137% | 12.1 µM | 0.279 µM | – |
| CCO[C@@H](Cc1cccc(C2=NOC(c3ccc(F)cc3)C2)c1)C(=O)O (stereo partly drawn) | 119% | 24.4 µM | 1.16 µM | – |
| CCO[C@@H](Cc1cccc(/C(C)=N/OCc2ccc(OC)cc2)c1)C(=O)O | 179% | 4.06 µM | 0.175 µM | – |
| CCO[C@H](Cc1cccc(/C(C)=N/OCc2ccccc2)c1)C(=O)O | 8% | – | 1.89 µM | Activity [18]: inactive; inhibition in vivo at 20 mg/kg (Mus musculus [19]): 22.3% |
| CCO[C@@H](Cc1cccc(C2=NOC(c3ccc(Br)cc3)C2)c1)C(=O)O (stereo partly drawn) | 144% | 4.39 µM | 0.74 µM | – |
| CCO[C@@H](Cc1cccc(C2=NOC(c3ccc(O)cc3)C2)c1)C(=O)O (stereo partly drawn) | 0% | – | 38.6 µM | – |
